How the values were obtained:
[1] = biological target: T1, Bifunctional epoxide hydrolase 2 (Homo sapiens) (UniProt P34913); test: Inhibition of recombinant human sEH at 100 nM using PHOME as substrate measured after 15 mins by fluorescence assay relative to control
T1 sequence (whole entry): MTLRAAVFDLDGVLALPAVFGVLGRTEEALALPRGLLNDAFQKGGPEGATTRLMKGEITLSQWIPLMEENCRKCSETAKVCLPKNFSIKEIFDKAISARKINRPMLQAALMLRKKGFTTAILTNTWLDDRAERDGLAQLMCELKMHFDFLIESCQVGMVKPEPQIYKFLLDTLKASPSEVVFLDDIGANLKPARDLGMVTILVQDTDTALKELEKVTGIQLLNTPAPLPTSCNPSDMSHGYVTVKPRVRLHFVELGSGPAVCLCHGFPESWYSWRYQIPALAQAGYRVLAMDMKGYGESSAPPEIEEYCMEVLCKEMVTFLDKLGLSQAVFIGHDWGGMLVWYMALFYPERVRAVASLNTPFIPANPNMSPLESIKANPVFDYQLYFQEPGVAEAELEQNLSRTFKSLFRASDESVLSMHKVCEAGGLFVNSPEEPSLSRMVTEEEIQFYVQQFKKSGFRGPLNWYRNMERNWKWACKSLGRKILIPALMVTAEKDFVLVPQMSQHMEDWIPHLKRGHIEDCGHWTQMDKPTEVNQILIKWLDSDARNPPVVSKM

[2] = biological target: T2, Bifunctional epoxide hydrolase 2 (Homo sapiens, UniProt P34913); test: Inhibition of recombinant human sEH using PHOME as substrate measured after 15 mins by fluorescence assay
T2 sequence (P34913 whole entry): T1 sequence (whole entry)

[3] = in vitro; settings: Sprague-Dawley, rat, liver microsomes
Description: Half life in Sprague-Dawley rat liver microsomes at 10 uM measured up to 60 mins in presence of NADPH regenerating system by HPLC analysis

[4] = in vitro; settings: Sprague-Dawley, rat, liver microsomes; remark: listed apart in the source
[5] = in vitro; settings: Sprague-Dawley, rat, liver microsomes; remark: listed apart in the source
[6] = in vitro; settings: Sprague-Dawley, rat, liver microsomes; remark: listed apart in the source
Description: Stability in Sprague-Dawley rat liver microsomes assessed as parent compound remaining at 10 uM measured after 60 mins in presence of NADPH regenerating system by HPLC analysis

[7] = in vitro; settings: Sprague-Dawley, rat, liver microsomes; remark: listed apart in the source
Description: Stability in Sprague-Dawley rat liver microsomes assessed as parent compound remaining at 10 uM measured after 60 mins in absence of NADPH regenerating system by HPLC analysis

[8] = tested on: Mus musculus; test: Antiinflammatory activity in BALB/c mouse model of carrageenan-induced paw edema assessed as paw thickness at 100 mg/kg, ip pretreated for 1 hr followed by carrageenan challenge and measured after 1 hr by caliper method (reference value: 3.51 +/- 0.19 millimeter); format: functional; settings: time 2 hrs
[9] = tested on: Mus musculus; test: Antiinflammatory activity in BALB/c mouse model of carrageenan-induced paw edema assessed as paw edema at 100 mg/kg, ip pretreated for 1 hr followed by carrageenan challenge and measured after 1 hr by caliper method relative to control; format: functional; settings: time 2 hrs
[10] = tested on: Mus musculus; test: Antiinflammatory activity in BALB/c mouse model of carrageenan-induced paw edema assessed as paw thickness at 100 mg/kg, ip pretreated for 1 hr followed by carrageenan challenge and measured after 2 hrs by caliper method (reference value: 3.56 +/- 0.29 millimeter); format: functional; settings: time 3 hrs
[11] = tested on: Mus musculus; test: Antiinflammatory activity in BALB/c mouse model of carrageenan-induced paw edema assessed as paw edema at 100 mg/kg, ip pretreated for 1 hr followed by carrageenan challenge and measured after 2 hrs by caliper method relative to control; format: functional; settings: time 3 hrs
[12] = tested on: Mus musculus; test: Antiinflammatory activity in BALB/c mouse model of carrageenan-induced paw edema assessed as paw thickness at 100 mg/kg, ip pretreated for 1 hr followed by carrageenan challenge and measured after 3 hrs by caliper method (reference value: 3.61 +/- 0.36 millimeter); format: functional; settings: time 4 hrs
[13] = tested on: Mus musculus; test: Antiinflammatory activity in BALB/c mouse model of carrageenan-induced paw edema assessed as paw edema at 100 mg/kg, ip pretreated for 1 hr followed by carrageenan challenge and measured after 3 hrs by caliper method relative to control; format: functional; settings: time 4 hrs
[14] = tested on: Mus musculus; test: Antiinflammatory activity in BALB/c mouse model of carrageenan-induced paw edema assessed as paw thickness at 100 mg/kg, ip pretreated for 1 hr followed by carrageenan challenge and measured after 4 hrs by caliper method (reference value: 3.60 +/- 0.12 millimeter); format: functional; settings: time 5 hrs
[15] = tested on: Mus musculus; test: Antiinflammatory activity in BALB/c mouse model of carrageenan-induced paw edema assessed as paw edema at 100 mg/kg, ip pretreated for 1 hr followed by carrageenan challenge and measured after 4 hrs by caliper method relative to control; format: functional; settings: time 5 hrs

Compound: CC(C)Oc1ccc(NC(=O)N(CCN2CCOCC2)c2ccc3nc(N)sc3c2)cc1
- inhibition [1]: 56.6%
- IC50 [2]: 122 nM

Compound: Nc1nc2ccc(N(CCN3CCOCC3)C(=O)Nc3ccc(Cl)cc3Cl)cc2s1
- inhibition [1]: 58.4%

Compound: Nc1nc2ccc(N(CCCN3CCOCC3)C(=O)Nc3ccc(Cl)cc3)cc2s1
- inhibition [1]: 9.44%

Compound: O=C(O)Cc1ccccc1Nc1c(Cl)cccc1Cl [DICLOFENAC]
- half-life at 1 h, 10 µM [3]: 23.4 min
- microsomal CLint at 1 h, 10 µM [4]: 59.3 µL/min/mg
- microsomal CLint at 1 h, 10 µM [5]: 107 µL/min/mg
- remaining at 1 h, 10 µM [6]: 16.9%
- remaining at 1 h, 10 µM [7]: 96.3%

Compound: O=C(Cc1ccccc1)Nc1nc2ccc(N(CCN3CCOCC3)C(=O)Nc3ccc(F)c(Br)c3)cc2s1
- inhibition [1]: 74.2%

Compound: CC(=O)Nc1ccc2nc(NC(=O)NCc3ccc(Cl)cc3)sc2c1
- inhibition [1]: 14.5%

Compound: Nc1nc2ccc(NC(=O)NC34CC5CC(CC(C5)C3)C4)cc2s1
- inhibition [1]: 77.3%
- IC50 [2]: 822 nM

Compound: Nc1nc2ccc(N(CCN3CCOCC3)C(=O)NCc3ccc(Cl)cc3)cc2s1
- inhibition [1]: 14.5%

Compound: Cc1cccc(NC(=O)N(CCN2CCOCC2)c2ccc3nc(N)sc3c2)c1
- inhibition [1]: 61.7%
- IC50 [2]: 101 nM

Compound: Nc1nc2ccc(NC(=O)NCc3ccc(Cl)cc3)cc2s1
- inhibition [1]: 47%

Compound: Nc1nc2ccc(N(CCN3CCOCC3)C(=O)Nc3ccc(F)cc3)cc2s1
- inhibition [1]: 74.3%

Compound: Nc1nc2ccc(NC(=O)Nc3ccccn3)cc2s1
- inhibition [1]: 20.5%

Compound: Nc1nc2ccc(N(CCN3CCOCC3)C(=O)Nc3cccc(C(F)(F)F)c3)cc2s1
- inhibition [1]: 6.18%

Compound: CC(=O)Nc1nc2ccc(N(CCN3CCOCC3)C(=O)Nc3ccc(Cl)cc3)cc2s1
- inhibition [1]: 68.1%

Compound: O=C(Cc1ccccc1F)Nc1nc2ccc(N(CCN3CCOCC3)C(=O)Nc3ccc(Cl)cc3)cc2s1
- inhibition [1]: 82.5%
- IC50 [2]: 4.08 nM

Compound: Nc1nc2ccc(N(CCN3CCOCC3)C(=O)Nc3ccccn3)cc2s1
- inhibition [1]: 16.2%

Compound: O=C(Nc1ccc(Cl)cc1)Nc1nc2ccc([N+](=O)[O-])cc2s1
- inhibition [1]: 7.2%

Compound: Nc1nc2ccc(N(CCN3CCOCC3)C(=O)Nc3ccc([N+](=O)[O-])cc3)cc2s1
- inhibition [1]: 19.2%

Compound: Nc1nc2ccc(NC(=O)NC3CCCCC3)cc2s1
- inhibition [1]: 59.9%
- IC50 [2]: 4.1 nM

Compound: CC(=O)c1ccc(NC(=O)N(CCN2CCOCC2)c2ccc3nc(N)sc3c2)cc1
- inhibition [1]: 28.2%

Compound: O=C(Cc1ccc(Cl)cc1)Nc1nc2ccc(N(CCN3CCOCC3)C(=O)Nc3ccc(Cl)cc3)cc2s1
- inhibition [1]: 71.9%

Compound: Cc1ccc(NC(=O)N(CCN2CCOCC2)c2ccc3nc(N)sc3c2)cc1
- inhibition [1]: 73.1%
- IC50 [2]: 8.3 nM

Compound: COc1ccc(CC(=O)Nc2nc3ccc(N(CCN4CCOCC4)C(=O)Nc4ccc(Cl)cc4)cc3s2)cc1
- inhibition [1]: 65.8%

Compound: Nc1nc2ccc(N(CCN3CCCC3)C(=O)Nc3ccc(Cl)cc3)cc2s1
- inhibition [1]: 48.3%

Compound: Nc1nc2ccc(NC(=O)Nc3cccc4ccccc34)cc2s1
- inhibition [1]: 34.1%

Compound: O=C(Cc1ccc(Cl)cc1Cl)Nc1nc2ccc(N(CCN3CCOCC3)C(=O)Nc3ccc(Cl)cc3)cc2s1
- inhibition [1]: 71.8%

Compound: CCc1ccc(NC(=O)N(CCN2CCOCC2)c2ccc3nc(NC(=O)Cc4ccccc4)sc3c2)cc1
- inhibition [1]: 76.8%

Compound: Nc1ccc2nc(NC(=O)NCc3ccc(Cl)cc3)sc2c1
- inhibition [1]: 14.2%

Compound: O=C(Cc1ccc(Br)cc1)Nc1nc2ccc(N(CCN3CCOCC3)C(=O)Nc3ccc(Cl)cc3)cc2s1
- inhibition [1]: 70.6%

Compound: CN(C)CCN(C(=O)Nc1ccc(Cl)cc1)c1ccc2nc(N)sc2c1
- inhibition [1]: 39.1%

Compound: Nc1nc2ccc(N(CCN3CCOCC3)C(=O)Nc3ccccc3Cl)cc2s1
- inhibition [1]: 59.7%

Compound: CN1CCN(C(=O)Nc2nc3ccc(N(CCN4CCOCC4)C(=O)Nc4ccc(Cl)cc4)cc3s2)CC1
- inhibition [1]: 64%

Compound: Nc1nc2ccc(NC(=O)Nc3ccc(OC(F)(F)F)cc3)cc2s1
- inhibition [1]: 60.2%

Compound: O=C(NCc1ccc(Cl)cc1)Nc1nc2ccc([N+](=O)[O-])cc2s1
- inhibition [1]: 10.9%

Compound: O=C(CCc1ccccc1)Nc1nc2ccc(N(CCN3CCOCC3)C(=O)Nc3ccc(Cl)cc3)cc2s1
- inhibition [1]: 77.7%

Compound: Nc1nc2ccc(N(CCN3CCOCC3)C(=O)Nc3cccc(Cl)c3)cc2s1
- inhibition [1]: 36.5%

Compound: Cc1ccccc1NC(=O)N(CCN1CCOCC1)c1ccc2nc(N)sc2c1
- inhibition [1]: 26.3%

Compound: CC(=O)Nc1ccc2nc(NC(=O)Nc3ccc(Cl)cc3)sc2c1
- inhibition [1]: 12.5%

Compound: Nc1nc2ccc(N(CCN3CCCCC3)C(=O)Nc3ccc(Cl)cc3)cc2s1
- inhibition [1]: 84.6%
- IC50 [2]: 6.5 nM

Compound: CC(C)c1ccc(NC(=O)N(CCN2CCOCC2)c2ccc3nc(N)sc3c2)cc1
- inhibition [1]: 75.2%
- IC50 [2]: 11.2 nM

Compound: CN1CCN(CCN(C(=O)Nc2ccc(Cl)cc2)c2ccc3nc(N)sc3c2)CC1
- inhibition [1]: 45.9%

Compound: Nc1nc2ccc(N(CCN3CCOCC3)C(=O)Nc3ccc(OC(F)(F)F)cc3)cc2s1
- inhibition [1]: 61.3%

Compound: O=C(Nc1nc2ccc(N(CCN3CCOCC3)C(=O)Nc3ccc(Cl)cc3)cc2s1)c1ccccc1
- inhibition [1]: 48.8%

Compound: Nc1nc2ccc(N(CCN3CCOCC3)C(=O)Nc3cccc4ccccc34)cc2s1
- inhibition [1]: 39%
- IC50 [2]: 151 nM

Compound: Nc1nc2ccc(N(CCN3CCOCC3)C(=O)Nc3ccc(C(F)(F)F)cc3)cc2s1
- inhibition [1]: 62%

Compound: CC1CCN(CCN(C(=O)Nc2ccc(Cl)cc2)c2ccc3nc(N)sc3c2)CC1
- inhibition [1]: 77.5%
- IC50 [2]: 20.2 nM

Compound: Nc1nc2ccc(NC(=O)Nc3ccccc3)cc2s1
- inhibition [1]: 40.1%

Compound: COc1ccc(NC(=O)Nc2ccc3nc(N)sc3c2)cc1
- inhibition [1]: 39.3%

Compound: O=C(Cc1ccc(F)cc1)Nc1nc2ccc(N(CCN3CCOCC3)C(=O)Nc3ccc(Cl)cc3)cc2s1
- inhibition [1]: 74.9%

Compound: COc1ccc(CC(=O)Nc2nc3ccc(N(CCN4CCOCC4)C(=O)Nc4ccc(Cl)cc4)cc3s2)cc1F
- inhibition [1]: 58.1%

Compound: O=C(Nc1ccc(Cl)cc1)Nc1nc2ccc(NCCN3CCOCC3)cc2s1
- inhibition [1]: 16.2%

Compound: Nc1nc2ccc(N(CCN3CCOCC3)C(=O)Nc3ccc(Br)cc3)cc2s1
- inhibition [1]: 83.8%
- IC50 [2]: 16.2 nM

Compound: CCc1ccc(NC(=O)N(CCN2CCOCC2)c2ccc3nc(N)sc3c2)cc1
- inhibition [1]: 84.7%
- IC50 [2]: 1.9 nM

Compound: O=C(Nc1nc2ccc(N(CCN3CCOCC3)C(=O)Nc3ccc(Cl)cc3)cc2s1)C1CC1
- inhibition [1]: 32.5%

Compound: CC(=O)Nc1ccc(NC(=O)N(CCN2CCOCC2)c2ccc3nc(N)sc3c2)cc1
- inhibition [1]: 59.4%

Compound: O=C(NC12CC3CC(CC(C3)C1)C2)N[C@H]1CC[C@H](Oc2ccc(C(=O)O)cc2)CC1
- Activity [8]: 3.3 mm
- Activity [9]: 25.01%
- Activity [10]: 3.23 mm
- Activity [11]: 22.61%
- Activity [12]: 3.29 mm
- Activity [13]: 24.98%
- Activity [14]: 3.28 mm
- Activity [15]: 24.71%

Compound: CCN(CC)CCN(C(=O)Nc1ccc(Cl)cc1)c1ccc2nc(N)sc2c1
- inhibition [1]: 86.3%
- IC50 [2]: 24.5 nM

Compound: NC(=O)Nc1ccc2nc(N)sc2c1
- inhibition [1]: 25.3%

Compound: Nc1nc2ccc(N(CCN3CCOCC3)C(=O)Nc3ccccc3)cc2s1
- inhibition [1]: 40.4%

Compound: O=C(Cc1ccccc1F)Nc1nc2ccc(N(CCN3CCOCC3)C(=O)Nc3ccc(F)c(Br)c3)cc2s1
- inhibition [1]: 73.8%

Compound: Nc1nc2ccc(NC(=O)Nc3ccc(Cl)cc3)cc2s1
- inhibition [1]: 76.1%
- IC50 [2]: 10.1 nM

Compound: O=C(Nc1nc2ccc(N(CCN3CCOCC3)C(=O)Nc3ccc(Cl)cc3)cc2s1)c1ccc(F)cc1
- inhibition [1]: 64%

Compound: Nc1ccc2nc(NC(=O)Nc3ccc(Cl)cc3)sc2c1
- inhibition [1]: 6.7%

Compound: CCc1ccc(NC(=O)N(CCN2CCOCC2)c2ccc3nc(NC(=O)Cc4ccccc4F)sc3c2)cc1
- inhibition [1]: 85.2%
- IC50 [2]: 5.4 nM

From ChEMBL document CHEMBL4706628, “Ligand-based optimization to identify novel 2-aminobenzo[d]thiazole derivatives as potent sEH inhibitors with anti-inflammatory effects” (Eur J Med Chem, 2021)
